Experimental data published in patent US8008329B2 (Dong Wha Pharmaceutical Co., Ltd., priority 2008, dated 2011).
Marks after values point to notes of the source that are not given here.

System: osteoclast differentiation
Test: Osteoclast differentiation in co-culture of mouse bone marrow cells and ST2 cells, TRAP staining (Examples 8-9)
Format: cell-based
Conditions: for % number of osteoclast (vs. solvent control group): 0.1 μM each, day 7; for activity at 0.1 µM: Mus musculus, Osteoclast, 168 h, Individual treatment (compounds), day 7, read-out: % number of osteoclast (vs. solvent control group)
Procedure, shortened: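 Readout was TRAP-positive multinucleated (≥6 nuclei) cells on day 7, reported as % of 0.1% DMSO control, mean±SD of 4 wells. Cells were mouse (male ddY) bone marrow plus ST2 co-cultures driven by 10^−8 M vitamin D3/dexamethasone. Benzamidines, alendronic acid or risedronic acid were added at 0.1 μM alone or combined, with media renewed days 3 and 5.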

[1] = Combination treatment (alendronic acid + compounds)
[2] = Combination treatment (risedronic acid + compounds)

Row | Structure (SMILES) | % number of osteoclast (vs. solvent control group) [1] | % number of osteoclast (vs. solvent control group) [2] | activity at 0.1 µM
1 | CN(CCN1CCOCC1)c1nc(-c2ccc(OCCCCCOc3ccc(C(=N)NO)cc3)cc2)c(CC2CCCC2)s1 [Compound 148, N-hydroxy-4-[5-(4-{5-cyclopentylmethyl-2-[methyl-(2-morpholinoethyl)amino]-1,3-thiazol-4-yl}phenoxy)pentyloxy]-benzamidine] | 33 ± 8.3^ab % | 19 ± 2.4^a % | 65 ± 4.3%
2 | CCCN(CCC)c1nc(-c2ccc(OCCCCCOc3ccc(C(=N)NO)cc3)cc2)c(CC2CCCC2)s1 [Compound 149, N-hydroxy-4-{5-[4-(5-cyclopentylmethyl-2-dipropylamino-1,3-thiazol-4-yl)phenoxy]pentyloxy}-benzamidine] | 40 ± 8.8% | 31 ± 2.5^ac % | 63 ± 9.9%
3 | CCCCc1sc(N(C)C)nc1-c1ccc(OCCCCCOc2ccc(C(=N)NO)cc2)cc1 [Compound 152, N-hydroxy-4-{5-[4-(5-butyl-2-dimethylamino-1,3-thiazol-4-yl)phenoxy]pentyloxy}-benzamidine] | 46 ± 8.8^b % | 48 ± 4.9^ac % | 65 ± 2.2%
4 | CN(CCN1CCOCC1)c1nc(-c2ccc(OCCCCCOc3ccc(C(=N)NO)cc3)cc2)c(C2CCCC2)s1 [Compound 153, N-hydroxy-4-[5-(4-{5-cyclopentyl-2-[methyl-(2-morpholinoethyl)amino]-1,3-thiazol-4-yl}phenoxy)pentyloxy]-benzamidine] | 27 ± 3.5^ab % | 22 ± 4.5^ac % | 55 ± 3.1%
5 | CCCN(CCC)c1nc(-c2ccc(OCCCCCOc3ccc(C(=N)NO)cc3)cc2)c(C(C)C)s1 [Compound 157, N-hydroxy-4-{5-[4-(5-isopropyl-2-dipropylamino-1,3-thiazol-4-yl)phenoxy]pentyloxy}-benzamidine] | 39 ± 8.3^ab % | 36 ± 15.1^ac % | 78 ± 13.5%
6 | CC(C)c1sc(N(C)C)nc1-c1ccc(OCCCCCOc2ccc(C(=N)NO)cc2)cc1 [Compound 161, N-hydroxy-4-{5-[4-(5-isopropyl-2-dimethylamino-1,3-thiazol-4-yl)phenoxy]pentyloxy}-benzamidine] | 56 ± 4.3^ab % | 47 ± 14.0^a % | 79 ± 5.1%
7 | CCN(CC)c1nc(-c2ccc(OCCCCCOc3ccc(C(=N)NO)cc3)cc2)c(C(C)C)s1 [Compound 162, N-hydroxy-4-{5-[4-(5-isopropyl-2-diethylamino-1,3-thiazol-4-yl)phenoxy]pentyloxy}-benzamidine] | 78 ± 1.8% | 61 ± 7.5^ac % | 98 ± 8.2%
8 | CN(C)c1nc(-c2ccc(OCCCCCOc3ccc(C(=N)NO)cc3)cc2)c(CC2CCCC2)s1 [Compound 163, N-hydroxy-4-{5-[4-(5-cyclopentylmethyl-2-dimethylamino-1,3-thiazol-4-yl)phenoxy]pentyloxy}-benzamidine] | 55 ± 7.6% | 41 ± 7.3^ac % | 65 ± 8.8%
9 | Cc1sc(N2CCOCC2)nc1-c1ccc(OCCCCCOc2ccc(C(=N)NO)cc2)cc1 [Compound 165, N-hydroxy-4-{5-[4-(5-methyl-2-morpholino-1,3-thiazol-4-yl)phenoxy]pentyloxy}-benzamidine] | 29 ± 7.5^ab % | 30 ± 3.1^ac % | 75 ± 3.8%
10 | CCc1sc(N2CCCCC2)nc1-c1ccc(OCCCCCOc2ccc(C(=N)NO)cc2)cc1 [Compound 166, N-hydroxy-4-{5-[4-(5-ethyl-2-piperidino-1,3-thiazol-4-yl)phenoxy]pentyloxy}-benzamidine] | 43 ± 9.4^ab % | 35 ± 3.9^ac % | 73 ± 4.4%
